Experimental data as given in patent EP0684822B1, “CARBOCYCLIC DEOXYGUANOSINE ANALOGS FOR THE TREATMENT OF VIRAL INFECTIONS” (SOUTHERN RESEARCH INSTITUTE, priority 1993, dated 1994).
≈ marks a conversion by molar mass, not a printed value.

Columns and labels:
[1] = test system: MRC5 cell monolayer cultures; test: Drug cytotoxicity (gross morphology) in MRC5 cell monolayer cultures; type: cell-based
human CMV [2] = test: In vitro activity against human CMV in human foreskin fibroblast cells; type: cell-based
Method: The in vitro activity of D-2'-CdG was also compared with the current investigational drug of choice for human CMV, DHPG. These experiments were carried out in human foreskin fibroblast cells.

CMV = CMV yield reduction in MRC5 cell monolayer cultures (plaque assay); type: cell-based, human CMV; details: for CMV Yield PFU/mL: virus controls 1.1 x 10^5; for CMV Yield log10 PFU/mL: virus controls 5.1
Method: (§1) The D- and L-enantiomers of 2'-CdG were prepared from racemic C-2,6-DAPR by an enzymatic method as described above Secrist et al. (J. Med. Chem. 30:746, 1987). The effectiveness of racemic-2'-CdG and of D-2'-CdG in reducing CMV yields in MRC5 cell monolayer cultures was determined by a plaque assay with the results set forth in tables 6 and 7.

[3] = test system: MRC5 cell monolayer cultures; test: Drug cytotoxicity (gross morphology) in MRC5 cell monolayer cultures; type: cell-based; remark: listed apart in the source
Method: as §1

human CMV [4] = test: Intravitreal human CMV infection in rabbits; type: in vivo, New Zealand white rabbits; details: intravitreal injection, 100 µg in 100 µl, 48-hour intervals beginning at day 4
Description: The symptoms included vitritis, iritis, retinal pathology (micro hemorrhages and focal necrosis of the retinal surface), corneal stromal haze and neovascularization, and corneal endothelial pigmented precipitates. […] The intravitreal route offers some significant advantages for intraocular infections including: 1) delivery of maximal concentrations of drug to the desired site of action; 2) increased potential for sustained release (i.e., longer half-life, T1/2) of the drug; and 3) reduced potential for systemic toxicity.

HSV-2 (strain MS, TK+) = test: Antiviral activity against HSV-2; type: cell-based; details: HSV-2
Method: D-2'-CdG and L-2'-CdG were tested, alongside D,L-2'-CdG, against both HSV-1 (strain 377, TK+; obtained from Dr. Earl Kern, University of Alabama) and HSV-2 (strain MS, TK+; also obtained from Dr. Earl Kern). In these tests (Table 5), Ara-A and acyclovir (ACV) were the positive control drugs. In four tests vs. HSV-1, the antiviral activity (VR) and potency (MIC50) of D-2'-CdG were approximately the same as those of racemic 2-CdG. L-2'-CdG was only modestly active.
These compounds were tested against HSV-2(TK^+). The VR of ACV was somewhat higher than the VR values of D-2'-CdG and D,L-2'-CdG, but the values of MIC50 of the two forms of 2'-CdG were lower. In addition, experiments comparing the antiviral activity D-2'-CdG with acyclovir against HSV-1 in human foreskin fibroblasts have shown an even greater potency, in favor of D-2'-CdG.

CCRF-CEM cells = test: Phosphorylation in uninfected CCRF-CEM cells, effects of dCyd and mycophenolic acid; type: cell-based; details: for increase in the phosphates in the presence of mycophenolic acid / reduction of the amount of phosphates in the presence of dCyd: Fig. 6; for reduction of the amount of phosphates in the presence of dCyd: calculated from the radioactivity in the peaks
Method: While these findings are similar to those obtained with the isolated viral kinase, they differ from the resulted with the isolated enzyme in that relatively more di- and triphosphate were formed from L-2'CdG.
Identity of the cellular enzyme(s) responsible for the phosphorylation of the enantiomers of 2'CdG. […] 36:291, 1989). To determine if dCyd kinase was involved, studies were carried out in which cells were indubated with D- or L-2'CdG and dCyd, and the formation of phosphates was monitored by HPLC. […] The presence of mycophenolic acid produced an increase in the phosphates of D- or L-2'CdG of 2.5-fold and 1.4-fold, respectively.

Structure (SMILES): Nc1nc2c(ncn2[C@@H]2C[C@H](CO)[C@@H](O)C2)c(=O)[nH]1 [D-2'-CdG, [1R,3S,4R-(1α,3β,4α)]-D-2-Amino-1,9-dihydro-9-[3-hydroxy-4-(hydroxymethyl)cyclopentyl]-6H-purin-6-one]
- Drug Cytotoxicity (Gross Morphology) ([1]; 0.1 µM): 0
- Drug Cytotoxicity (Gross Morphology) ([1]; 1.0 µM): 0
- Drug Cytotoxicity (Gross Morphology) ([1]; 10 µM): 0
- Drug Cytotoxicity (Gross Morphology) ([1]; 100 µM): slight toxicity
- antiviral potency relative to DHPG (human CMV [2]): more than 3 times
- EC50 (human CMV [2]; Human betaherpesvirus 5, read-out: ED50 value (median dose at which 50% antiviral efficacy is observed)): 0.06 µg/mL (≈ 0.226 µM)
- CMV Yield PFU/mL (CMV; 0.1 µM): 3.8 x 10^4 PFU/mL
- CMV Yield log10 PFU/mL (CMV; 0.1 µM): 4.6 log10 PFU/mL
- CMV Yield PFU/mL (CMV; 0.32 µM): 1.4 x 10^4 PFU/mL
- CMV Yield log10 PFU/mL (CMV; 0.32 µM): 4.1 log10 PFU/mL
- CMV Yield PFU/mL (CMV; 1.0 µM): 5.4 x 10^3 PFU/mL
- CMV Yield log10 PFU/mL (CMV; 1.0 µM): 3.7 log10 PFU/mL
- CMV Yield PFU/mL (CMV; 3.2 µM): 8.4 x 10^2 PFU/mL
- CMV Yield log10 PFU/mL (CMV; 3.2 µM): 2.9 log10 PFU/mL
- CMV Yield PFU/mL (CMV; 10 µM): 2 x 10^1 PFU/mL
- CMV Yield log10 PFU/mL (CMV; 10 µM): 1.3 log10 PFU/mL
- CMV Yield PFU/mL (CMV; 32 µM): 0 PFU/mL
- CMV Yield PFU/mL (CMV; 100 µM): 0 PFU/mL
- inhibition at 0.1 µM (CMV; Human betaherpesvirus 5, MRC5, 0.1 µM, read-out: Reduction (%) of CPE by D-2'CdG at Time of Virus Harvest): 0%
- inhibition at 0.32 µM (CMV; Human betaherpesvirus 5, MRC5, 0.32 µM, read-out: Reduction (%) of CPE by D-2'CdG at Time of Virus Harvest): 0%
- inhibition at 1 µM (CMV; Human betaherpesvirus 5, MRC5, 1.0 µM, read-out: Reduction (%) of CPE by D-2'CdG at Time of Virus Harvest): 10%
- inhibition at 3.2 µM (CMV; Human betaherpesvirus 5, MRC5, 3.2 µM, read-out: Reduction (%) of CPE by D-2'CdG at Time of Virus Harvest): 10%
- inhibition at 10 µM (CMV; Human betaherpesvirus 5, MRC5, 10 µM, read-out: Reduction (%) of CPE by D-2'CdG at Time of Virus Harvest): 25%
- inhibition at 32 µM (CMV; Human betaherpesvirus 5, MRC5, 32 µM, read-out: Reduction (%) of CPE by D-2'CdG at Time of Virus Harvest): 50%
- inhibition at 100 µM (CMV; Human betaherpesvirus 5, MRC5, 100 µM, read-out: Reduction (%) of CPE by D-2'CdG at Time of Virus Harvest): 50%
- Drug Cytotoxicity (Gross Morphology) ([3]; 0.32 µM): 0
- Drug Cytotoxicity (Gross Morphology) ([3]; 3.2 µM): 0
- Drug Cytotoxicity (Gross Morphology) ([3]; 32 µM): v. sl. toxicity
- Drug Cytotoxicity (Gross Morphology) ([3]; 320 µM): toxic
- clinical effect compared to placebo (human CMV [4]): effective in reducing the development of retinal pathology and in reducing the severity of the vitritis and iritis
- clinical outcome compared to ganciclovir (DHPG) under the same conditions (human CMV [4]): clinically better than treatment with ganciclovir
- VR (HSV-2 (strain MS, TK+)): 3.8
- EC50 (HSV-2 (strain MS, TK+); Human alphaherpesvirus 2, read-out: Mic50): 0.7 µg/mL (≈ 2.64 µM)
- increase in the phosphates in the presence of mycophenolic acid (CCRF-CEM cells): 2.5 fold
- reduction of the amount of phosphates in the presence of dCyd (CCRF-CEM cells): 80-90%
- predominant metabolite (CCRF-CEM cells; uninfected CEM cells, Fig. 5): the triphosphate

Structure (SMILES): Nc1nc2c(ncn2[C@H]2C[C@@H](CO)[C@H](O)C2)c(=O)[nH]1 [L-2'-CdG, [1S,3R,4S-(1α,3β,4α)]-L-2-Amino-1,9-dihydro-9-[3-hydroxy-4-(hydroxymethyl)cyclopentyl]-6H-purin-6-one]
- VR (HSV-2 (strain MS, TK+)): 0
- increase in the phosphates in the presence of mycophenolic acid (CCRF-CEM cells): 1.4 fold
- reduction of the amount of phosphates in the presence of dCyd (CCRF-CEM cells): 80-90%
- predominant metabolite (CCRF-CEM cells; uninfected CEM cells, Fig. 5): the monophosphate
- total amount of phosphates formed, relative to D-2'CdG (CCRF-CEM cells; uninfected CEM cells, Fig. 5): about twice that formed from D-2'CdG
